These are literature values, as cited in US20200221696A1, “ACTIVE […] FORMULATION FOR I[…] AND OBTAINED PAINT” (priority 2018, published 2020).

Entries after “also recorded” stand apart in the source; their conditions may differ. Where two headings read alike, the source gives them in different places.

For the series the following is noted: aqueous medium; for Decomposition time (Mean life): stability in words: pH.

As to `CC1(C)C(C=C(Cl)Cl)C1C(=O)OC(C#N)c1cccc(Oc2ccccc2)c1` (centres unmarked) [Cypermethrin], the “Decomposition time (Mean life)” value (pH 9) is reported as 7 days.

`CC1(C)C(C=C(Cl)Cl)C1C(=O)OCc1cccc(Oc2ccccc2)c1` (centres unmarked) [Permethrin]: the “Decomposition time (Mean life): stability in words” value (“Decomposition time … in words” for short) is “Stable at pH between 5 and 6”.

On to `CCOP(=S)(OCC)Oc1cc(C)nc(C(C)C)n1` [Diazinon], for which the “Decomposition time (Mean life)” value runs as follows: (pH 5) 31 days; (pH 7.5) 185 days; (pH 9) 136 days. As for `C=CCC1=C(C)C(OC(=O)C2C(C=C(C)C)C2(C)C)CC1=O` [D-allethrin], the “Decomposition time … in words” value is reported as “Stable at pH 5 after 31 days”. The “Decomposition time (Mean life)” value (pH 7) is 500 days. The “Decomposition time (Mean life)” value (pH 9) is recorded as “(4.3 days)”. Consider `CCN(CC)c1nc(C)cc(OP(=S)(OC)OC)n1` [Pirimiphos-methyl], for which the “Decomposition time (Mean life)” value is reported as 7 days (pH 5) and 5 days (pH 8). On to `CCOP(=S)(OCC)Oc1nc(Cl)c(Cl)cc1Cl` [Chlorpyrifos], for which the “Decomposition time … in words” value was “Stable in neutral and slightly acid”. Also, for the setting “pH 10”, the “Decomposition time (Mean life)” value was 7 days. Consider `CC(COc1ccc(Oc2ccccc2)cc1)Oc1ccccn1` (centres unmarked) [Pyriproxifen], for which the “Decomposition time … in words” value was “Stable in pH between 4 and 9”. `CC1(C)[C@H](C(=O)O[C@H](C#N)c2cccc(Oc3ccccc3)c2)[C@@H]1C=C(Br)Br` [Deltamethrin]: the “Decomposition time … in words” value is given as “more stable in medium acid solutions”. The “Decomposition time (Mean life)” value (pH 7) was 0.33 days. Regarding `O=C(NC(=O)c1c(F)cccc1F)Nc1ccc(Cl)cc1` [Diflubenzuron], the “Decomposition time … in words” value is recorded as “Stable in a pH range from 5 to 7; also recorded: Hydrolyzed at pH 9”. In the case of `CCOC(=O)CC(SP(=S)(OC)OC)C(=O)OCC` (centres unmarked) [Malathion], the “Decomposition time … in words” value was “Quickly hydrolyzed at pH over 7. The optimal pH”.
